Results published in patent publication US10517889B2, “Modulators of SMAD7 expression” (Ionis Pharmaceuticals, Inc., priority 2017, dated 2019).
Strand notation (5' to 3'): a small letter for the sugar, then the base; units joined by * are phosphorothioate-linked, units joined directly phosphodiester-linked; [ ] holds rarer units or linkages, { } end groups; capitals alone tell only the bases. k = constrained ethyl (cEt); [5mC] = 5-methylcytosine; d = 2'-deoxy (DNA)

tested on: human SMAD7 mRNA; experiment: Antisense inhibition of human SMAD7 mRNA expression in Hep3B cells by 3-10-3 cEt gapmers, 10,000 nM, electroporation (Example 2); type: cell-based; conditions: Hep3B cells, electroporation with 10,000 nM antisense oligonucleotide, approximately 24 hours, RTS5062, percent inhibition of SMAD7 mRNA relative to untreated control cells
Procedure, shortened: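 Hep3B cells (20,000/well) were electroporated with 10,000 nM 3-10-3 cEt gapmer (16-mer, phosphorothioate, 5-methylcytosines) and harvested after about 24 h. SMAD7 mRNA quantified by RT-qPCR with primer probe set RTS5062, normalized to total RNA by RiboGreen; percent inhibition relative to untreated cells.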

| Substance | % Inhibition [%] |
| --- | --- |
| 799622 (kT*kT*k[5mC]*dT*dA*dA*dA*dA*dA*dT*dG*dT*d[5mC]*k[5mC]*k[5mC]*kA; antisense) [compound 799622] | 45 |
| 799623 (kT*kA*k[5mC]*dA*dA*dT*d[5mC]*dT*d[5mC]*d[5mC]*dT*dG*dG*kA*kA*kG; antisense) [compound 799623] | 45 |
| 799625 (kA*kA*kT*dG*dA*dA*dA*dG*dT*dA*d[5mC]*dA*dA*kT*k[5mC]*kT; antisense) [compound 799625] | 31 |
| 799626 (kA*kG*k[5mC]*dT*dT*dG*d[5mC]*dA*d[5mC]*d[5mC]*d[5mC]*dA*dG*k[5mC]*kA*kA; antisense) [compound 799626] | 41 |
| 799627 (k[5mC]*kA*k[5mC]*dA*dA*dG*d[5mC]*dT*dT*dG*d[5mC]*dA*d[5mC]*k[5mC]*k[5mC]*kA; antisense) [compound 799627] | 48 |
| 799628 (kA*k[5mC]*kA*d[5mC]*dA*d[5mC]*dA*d[5mC]*dA*dA*dG*d[5mC]*dT*kT*kG*k[5mC]; antisense) [compound 799628] | 38 |
| 799629 (kT*kA*k[5mC]*dA*d[5mC]*dA*d[5mC]*dA*d[5mC]*dA*dA*dG*d[5mC]*kT*kT*kG; antisense) [compound 799629] | 24 |
| 799630 (k[5mC]*k[5mC]*k[5mC]*dT*dA*dT*d[5mC]*d[5mC]*d[5mC]*dA*dG*dA*dG*k[5mC]*k[5mC]*kT; antisense) [compound 799630] | 43 |
| 799642 (kG*k[5mC]*kA*dA*dA*dT*d[5mC]*d[5mC]*dT*dT*dT*d[5mC]*d[5mC]*kA*kT*k[5mC]; antisense) [compound 799642] | 53 |
| 799643 (kG*kT*kG*dA*dT*d[5mC]*d[5mC]*d[5mC]*d[5mC]*dG*dG*dA*dA*kA*kG*k[5mC]; antisense) [compound 799643] | 26 |
| 799644 (kT*kT*k[5mC]*d[5mC]*dA*dA*d[5mC]*dA*d[5mC]*dA*dT*dG*d[5mC]*kT*k[5mC]*kT; antisense) [compound 799644] | 31 |
| 799645 (k[5mC]*kA*kA*dA*dG*dA*dT*dG*dA*dT*dA*dG*d[5mC]*kT*kT*k[5mC]; antisense) [compound 799645] | 45 |
| 799646 (antisense k[5mC]*kA*kG*dA*dA*dA*d[5mC]*dT*d[5mC]*d[5mC]*dA*dG*dA*kT*kG*kG) [compound 799646] | 18 |
| 799647 (antisense kA*k[5mC]*kA*dG*dA*dA*dA*d[5mC]*dT*d[5mC]*d[5mC]*dA*dG*kA*kT*kG) [compound 799647] | 0 |
| 799648 (antisense kA*kT*kG*dA*dA*dA*dG*d[5mC]*d[5mC]*d[5mC]*d[5mC]*d[5mC]*dA*kG*kA*k[5mC]) [compound 799648] | 9 |
| 799649 (antisense kA*kA*kA*dT*dG*dA*dA*dA*dG*d[5mC]*d[5mC]*d[5mC]*d[5mC]*k[5mC]*kA*kG) [compound 799649] | 53 |
| 799650 (antisense k[5mC]*kA*kG*d[5mC]*dA*dG*dA*d[5mC]*dA*dG*dG*d[5mC]*dA*kA*kA*kA) [compound 799650] | 46 |
| 799651 (antisense kA*kG*kG*dA*d[5mC]*dA*dG*d[5mC]*dA*dG*dA*d[5mC]*dA*kG*kG*k[5mC]) [compound 799651] | 55 |
| 799662 (antisense k[5mC]*kG*kT*dG*dA*dG*d[5mC]*dA*d[5mC]*dT*dT*d[5mC]*dT*kG*kT*k[5mC]) [compound 799662] | 55 |
| 799664 (antisense kG*k[5mC]*k[5mC]*dA*dG*d[5mC]*dA*dA*dG*dG*dA*dT*d[5mC]*kA*kA*kA) [compound 799664] | 8 |
| 799665 (antisense kG*kA*kT*dG*d[5mC]*d[5mC]*dA*dG*d[5mC]*dA*dA*dG*dG*kA*kT*k[5mC]) [compound 799665] | 57 |
| 799666 (antisense k[5mC]*kA*kG*dA*dT*dG*d[5mC]*d[5mC]*dA*dG*d[5mC]*dA*dA*kG*kG*kA) [compound 799666] | 51 |
| 799670 (antisense kT*k[5mC]*kT*dG*dA*dG*dA*d[5mC]*dT*dA*dT*dG*dA*k[5mC]*kA*kG) [compound 799670] | 51 |

same assay, conditions: Hep3B cells, electroporation, 10,000 nM antisense oligonucleotide, approximately 24 hours, RTS5062, relative to untreated control cells

| Substance | % inhibition of SMAD7 mRNA expression [%] |
| --- | --- |
| 799614 (kG*kG*k[5mC]*d[5mC]*dT*dT*dT*dG*dA*dG*d[5mC]*dA*d[5mC]*kA*k[5mC]*k[5mC]; antisense) [compound 799614] | 37 |
| 799615 (kG*kG*kA*dG*dA*dG*dG*dA*d[5mC]*d[5mC]*dG*dG*d[5mC]*k[5mC]*kT*kT; antisense) [compound 799615] | 24 |
| 799616 (kG*kG*k[5mC]*dT*d[5mC]*d[5mC]*dT*dA*d[5mC]*d[5mC]*d[5mC]*dG*d[5mC]*k[5mC]*k[5mC]*kA; antisense) [compound 799616] | 80 |
| 799617 (k[5mC]*kA*kA*d[5mC]*d[5mC]*dT*dG*d[5mC]*dA*dG*d[5mC]*d[5mC]*dA*kG*k[5mC]*kA; antisense) [compound 799617] | 50 |
| 799618 (kA*kA*k[5mC]*dA*dA*dA*dG*d[5mC]*dT*dG*d[5mC]*dA*dA*kT*kG*k[5mC]; antisense) [compound 799618] | 0 |
| 799619 (kA*k[5mC]*kG*dA*d[5mC]*d[5mC]*dA*dG*dG*d[5mC]*d[5mC]*dT*dG*kT*k[5mC]*kG; antisense) [compound 799619] | 9 |
| 799620 (kT*kA*kA*d[5mC]*dG*dA*d[5mC]*d[5mC]*dA*dG*dG*d[5mC]*d[5mC]*kT*kG*kT; antisense) [compound 799620] | 31 |
| 799621 (kT*kT*kT*d[5mC]*dA*d[5mC]*dT*dG*d[5mC]*dA*dA*dG*dT*k[5mC]*k[5mC]*k[5mC]; antisense) [compound 799621] | 49 |
| 799632 (k[5mC]*kT*kG*d[5mC]*d[5mC]*dA*dA*dA*dT*d[5mC]*dA*d[5mC]*dA*kA*kA*kG; antisense) [compound 799632] | 48 |
| 799633 (kA*kG*kA*d[5mC]*dT*dG*d[5mC]*d[5mC]*dA*dA*dA*dT*d[5mC]*kA*k[5mC]*kA; antisense) [compound 799633] | 25 |
| 799634 (k[5mC]*kA*kG*dA*d[5mC]*dT*dG*d[5mC]*d[5mC]*dA*dA*dA*dT*k[5mC]*kA*k[5mC]; antisense) [compound 799634] | 23 |
| 799635 (kA*k[5mC]*kA*dG*dA*d[5mC]*dT*dG*d[5mC]*d[5mC]*dA*dA*dA*kT*k[5mC]*kA; antisense) [compound 799635] | 28 |
| 799636 (k[5mC]*kA*k[5mC]*dA*dG*dA*d[5mC]*dT*dG*d[5mC]*d[5mC]*dA*dA*kA*kT*k[5mC]; antisense) [compound 799636] | 55 |
| 799637 (kG*k[5mC]*kA*d[5mC]*dA*dG*dA*d[5mC]*dT*dG*d[5mC]*d[5mC]*dA*kA*kA*kT; antisense) [compound 799637] | 48 |
| 799638 (kA*kG*kT*d[5mC]*dA*dG*dG*d[5mC]*dA*d[5mC]*dA*dG*dA*k[5mC]*kT*kG; antisense) [compound 799638] | 53 |
| 799639 (k[5mC]*k[5mC]*kA*dG*dA*dG*dA*dG*dT*d[5mC]*dA*dG*dG*k[5mC]*kA*k[5mC]; antisense) [compound 799639] | 34 |
| 799640 (k[5mC]*kA*kA*dG*dG*dA*d[5mC]*d[5mC]*dT*dG*dT*dT*d[5mC]*kT*kG*kG; antisense) [compound 799640] | 40 |
| 799641 (k[5mC]*kA*kT*d[5mC]*dA*dG*dA*d[5mC]*d[5mC]*dT*d[5mC]*dT*d[5mC]*k[5mC]*k[5mC]*kA; antisense) [compound 799641] | 33 |
| 799652 (antisense kA*k[5mC]*kT*d[5mC]*dA*dA*dA*d[5mC]*d[5mC]*dA*dG*dG*dA*k[5mC]*kA*kG) [compound 799652] | 0 |
| 799653 (antisense kA*k[5mC]*k[5mC]*d[5mC]*dA*d[5mC]*dT*d[5mC]*dA*dA*dA*d[5mC]*d[5mC]*kA*kG*kG) [compound 799653] | 51 |
| 799654 (antisense kG*k[5mC]*kT*dG*dA*dA*dT*dA*dA*d[5mC]*d[5mC]*dT*dA*k[5mC]*kA*kA) [compound 799654] | 22 |
| 799655 (antisense kT*kG*k[5mC]*dA*dG*d[5mC]*dT*dG*dA*dA*dT*dA*dA*k[5mC]*k[5mC]*kT) [compound 799655] | 47 |
| 799656 (antisense k[5mC]*kT*kA*dA*d[5mC]*dT*dG*dG*dG*d[5mC]*dA*dG*dG*kT*k[5mC]*k[5mC]) [compound 799656] | 60 |
| 799657 (antisense kT*kA*k[5mC]*dA*dA*dG*dT*dG*dG*dT*dT*dG*d[5mC]*kT*kG*kG) [compound 799657] | 62 |
| 799658 (antisense kA*kA*k[5mC]*dT*dA*d[5mC]*dA*dA*dG*dT*dG*dG*dT*kT*kG*k[5mC]) [compound 799658] | 22 |
| 799659 (antisense kA*kA*kA*dT*dA*dA*d[5mC]*dT*dA*d[5mC]*dA*dA*dG*kT*kG*kG) [compound 799659] | 57 |
| 799660 (antisense kT*kG*kG*dG*dA*dG*d[5mC]*dA*d[5mC]*dT*dT*d[5mC]*dT*kT*kT*kT) [compound 799660] | 35 |
| 799661 (antisense k[5mC]*kT*k[5mC]*d[5mC]*dA*d[5mC]*dT*dG*d[5mC]*d[5mC]*dT*d[5mC]*d[5mC]*kT*kA*k[5mC]) [compound 799661] | 44 |
